Bridge positions count the residues as written; N and C are the ends. Peptide text beside a SMILES is read from it.
Legend:
[1] = target: Sodium channel protein type 9 subunit alpha (Homo sapiens, UniProt Q15858); assay: Inhibition of human NaV1.7 at -140 mV holding potential by whole-cell patch clamp assay
[2] = target: Sodium channel protein type 5 subunit alpha (Homo sapiens, UniProt Q14524); assay: Inhibition of human NaV1.5 at -140 mV holding potential by whole-cell patch clamp assay
Sequence of Sodium channel protein type 5 subunit alpha (Q14524 whole entry): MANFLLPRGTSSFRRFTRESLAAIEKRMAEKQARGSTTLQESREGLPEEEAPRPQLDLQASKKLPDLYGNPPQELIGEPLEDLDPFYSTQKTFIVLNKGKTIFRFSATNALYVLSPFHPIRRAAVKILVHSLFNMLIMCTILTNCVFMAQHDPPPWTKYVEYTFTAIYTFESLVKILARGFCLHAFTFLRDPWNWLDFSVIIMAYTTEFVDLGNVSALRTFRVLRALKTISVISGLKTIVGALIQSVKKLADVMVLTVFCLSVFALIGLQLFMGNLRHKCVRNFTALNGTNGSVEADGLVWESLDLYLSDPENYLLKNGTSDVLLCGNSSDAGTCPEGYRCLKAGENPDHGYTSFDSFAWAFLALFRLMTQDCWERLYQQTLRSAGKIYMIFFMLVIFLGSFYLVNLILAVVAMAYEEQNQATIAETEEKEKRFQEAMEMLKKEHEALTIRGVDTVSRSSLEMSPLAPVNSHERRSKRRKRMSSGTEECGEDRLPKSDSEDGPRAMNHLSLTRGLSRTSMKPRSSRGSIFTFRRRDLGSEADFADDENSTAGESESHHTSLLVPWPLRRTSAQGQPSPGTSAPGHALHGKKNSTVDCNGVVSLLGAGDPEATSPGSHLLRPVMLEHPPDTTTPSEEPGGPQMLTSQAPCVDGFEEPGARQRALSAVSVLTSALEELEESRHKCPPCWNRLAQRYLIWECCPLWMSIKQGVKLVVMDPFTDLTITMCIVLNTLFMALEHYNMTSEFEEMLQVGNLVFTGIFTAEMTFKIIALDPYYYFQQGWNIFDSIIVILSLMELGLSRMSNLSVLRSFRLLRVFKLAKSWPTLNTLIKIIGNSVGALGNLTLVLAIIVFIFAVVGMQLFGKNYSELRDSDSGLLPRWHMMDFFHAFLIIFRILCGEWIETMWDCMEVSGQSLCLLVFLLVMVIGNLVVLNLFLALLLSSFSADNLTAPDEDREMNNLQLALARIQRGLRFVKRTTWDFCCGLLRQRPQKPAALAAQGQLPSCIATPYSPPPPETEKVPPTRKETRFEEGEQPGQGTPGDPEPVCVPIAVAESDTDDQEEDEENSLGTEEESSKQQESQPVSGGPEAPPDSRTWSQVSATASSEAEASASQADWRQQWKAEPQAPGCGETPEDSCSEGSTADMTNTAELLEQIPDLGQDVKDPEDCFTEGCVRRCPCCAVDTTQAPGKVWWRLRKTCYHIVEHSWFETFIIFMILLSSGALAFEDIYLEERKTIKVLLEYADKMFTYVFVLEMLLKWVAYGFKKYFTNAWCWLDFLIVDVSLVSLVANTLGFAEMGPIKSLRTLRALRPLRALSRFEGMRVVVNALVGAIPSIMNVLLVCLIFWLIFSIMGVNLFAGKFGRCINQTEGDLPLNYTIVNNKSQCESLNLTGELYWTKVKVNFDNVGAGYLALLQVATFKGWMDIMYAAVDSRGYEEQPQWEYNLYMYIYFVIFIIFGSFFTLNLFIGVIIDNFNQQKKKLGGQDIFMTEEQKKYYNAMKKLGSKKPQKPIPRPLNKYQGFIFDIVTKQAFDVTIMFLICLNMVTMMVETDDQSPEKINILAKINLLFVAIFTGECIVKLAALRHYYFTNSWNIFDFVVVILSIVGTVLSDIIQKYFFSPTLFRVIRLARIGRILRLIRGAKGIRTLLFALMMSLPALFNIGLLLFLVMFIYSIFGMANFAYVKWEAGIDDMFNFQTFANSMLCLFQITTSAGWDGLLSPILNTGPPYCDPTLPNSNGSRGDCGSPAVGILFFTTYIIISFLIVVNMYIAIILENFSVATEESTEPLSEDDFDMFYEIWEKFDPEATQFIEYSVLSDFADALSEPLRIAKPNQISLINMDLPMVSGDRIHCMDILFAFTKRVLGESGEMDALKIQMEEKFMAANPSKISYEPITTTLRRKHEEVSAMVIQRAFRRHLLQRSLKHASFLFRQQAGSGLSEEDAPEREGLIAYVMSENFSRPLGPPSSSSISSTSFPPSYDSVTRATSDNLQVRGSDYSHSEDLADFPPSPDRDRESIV

Sequence of Sodium channel protein type 9 subunit alpha (Q15858 whole entry): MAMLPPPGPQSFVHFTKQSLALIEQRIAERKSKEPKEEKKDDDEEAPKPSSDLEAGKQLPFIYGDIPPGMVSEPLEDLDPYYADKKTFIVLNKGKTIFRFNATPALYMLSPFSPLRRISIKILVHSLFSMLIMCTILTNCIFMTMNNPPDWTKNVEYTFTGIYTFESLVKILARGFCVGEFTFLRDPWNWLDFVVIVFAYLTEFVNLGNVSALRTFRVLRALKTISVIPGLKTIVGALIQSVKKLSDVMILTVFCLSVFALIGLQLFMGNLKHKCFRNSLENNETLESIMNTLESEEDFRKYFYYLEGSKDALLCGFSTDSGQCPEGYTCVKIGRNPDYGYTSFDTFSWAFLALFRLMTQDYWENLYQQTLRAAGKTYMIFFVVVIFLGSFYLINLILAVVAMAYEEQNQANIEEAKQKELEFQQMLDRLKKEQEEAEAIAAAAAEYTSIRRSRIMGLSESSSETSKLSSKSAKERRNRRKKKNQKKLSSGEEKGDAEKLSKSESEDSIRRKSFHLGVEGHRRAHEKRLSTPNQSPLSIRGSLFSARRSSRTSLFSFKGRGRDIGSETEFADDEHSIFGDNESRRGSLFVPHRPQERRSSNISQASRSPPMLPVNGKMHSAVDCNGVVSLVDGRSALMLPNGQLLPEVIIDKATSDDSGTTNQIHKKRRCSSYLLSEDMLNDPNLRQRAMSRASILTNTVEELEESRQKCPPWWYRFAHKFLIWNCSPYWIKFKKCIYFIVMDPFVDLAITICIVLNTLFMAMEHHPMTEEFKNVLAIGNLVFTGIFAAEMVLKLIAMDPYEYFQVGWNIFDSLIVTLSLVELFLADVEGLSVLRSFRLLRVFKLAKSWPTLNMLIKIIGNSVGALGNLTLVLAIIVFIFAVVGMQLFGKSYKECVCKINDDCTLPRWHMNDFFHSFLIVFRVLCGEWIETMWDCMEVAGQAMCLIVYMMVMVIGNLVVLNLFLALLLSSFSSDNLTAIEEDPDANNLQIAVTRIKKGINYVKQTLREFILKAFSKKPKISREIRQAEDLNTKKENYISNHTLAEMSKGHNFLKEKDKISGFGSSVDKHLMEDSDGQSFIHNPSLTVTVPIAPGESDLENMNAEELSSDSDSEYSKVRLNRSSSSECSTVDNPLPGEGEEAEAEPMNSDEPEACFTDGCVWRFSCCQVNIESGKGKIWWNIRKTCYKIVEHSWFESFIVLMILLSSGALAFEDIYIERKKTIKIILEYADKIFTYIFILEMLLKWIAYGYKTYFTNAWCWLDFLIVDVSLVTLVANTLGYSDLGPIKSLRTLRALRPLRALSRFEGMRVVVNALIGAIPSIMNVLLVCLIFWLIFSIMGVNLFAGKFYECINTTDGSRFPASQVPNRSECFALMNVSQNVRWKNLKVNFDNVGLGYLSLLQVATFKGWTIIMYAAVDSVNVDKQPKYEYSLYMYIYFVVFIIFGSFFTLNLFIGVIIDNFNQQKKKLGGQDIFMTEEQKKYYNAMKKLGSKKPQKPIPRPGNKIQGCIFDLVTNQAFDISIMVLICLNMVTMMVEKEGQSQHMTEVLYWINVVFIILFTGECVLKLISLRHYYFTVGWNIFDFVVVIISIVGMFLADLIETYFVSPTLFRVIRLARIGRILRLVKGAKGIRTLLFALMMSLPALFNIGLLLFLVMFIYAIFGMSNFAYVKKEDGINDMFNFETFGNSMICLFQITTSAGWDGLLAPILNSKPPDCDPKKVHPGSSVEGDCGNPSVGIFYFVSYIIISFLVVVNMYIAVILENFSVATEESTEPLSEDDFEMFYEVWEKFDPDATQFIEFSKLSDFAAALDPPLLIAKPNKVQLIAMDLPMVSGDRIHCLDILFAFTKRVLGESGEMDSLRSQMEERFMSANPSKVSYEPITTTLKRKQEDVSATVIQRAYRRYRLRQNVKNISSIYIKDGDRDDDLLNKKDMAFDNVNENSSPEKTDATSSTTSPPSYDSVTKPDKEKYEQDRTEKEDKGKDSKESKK

Structure (SMILES) | IC50 [1] [nM] | IC50 [2] [µM]
CC[C@H](C)[C@@H]1NC(=O)CNC(=O)[C@H](CC(C)C)NC(=O)[C@@H](NC(=O)[C@@H](N)CC(=O)O)CSSC[C@@H]2NC(=O)[C@@H]3CSSC[C@@H](C(=O)N[C@@H](CCCCN)C(=O)N[C@@H](Cc4ccc(O)cc4)C(=O)N[C@H](C(=O)N[C@@H](Cc4ccccc4)C(N)=O)C(C)C)NC(=O)[C@H](Cc4c[nH]c5ccccc45)NC(=O)[C@H](CCCCN)NC(=O)[C@H](Cc4cnc[nH]4)NC(=O)[C@H]([C@@H](C)O)NC(=O)[C@H](CCCNC(=N)N)NC(=O)[C@H](CO)NC(=O)[C@H](CSSC[C@H](NC(=O)[C@H](CCCCN)NC(=O)[C@H](CCCNC(=N)N)NC(=O)[C@H](CCSC)NC1=O)C(=O)N[C@@H]([C@@H](C)CC)C(=O)N1CCC[C@H]1C(=O)N[C@@H](CC(=O)O)C(=O)N[C@@H](CC(N)=O)C(=O)N[C@@H](CC(=O)O)C(=O)N[C@@H](CCCCN)C(=O)N3)NC(=O)[C@H](C(C)C)NC(=O)[C@H](CC(C)C)NC(=O)[C@H](CC(N)=O)NC(=O)[C@@H]1CCCN1C(=O)[C@H](CCCNC(=N)N)NC2=O (H-DCLGIMRKCIPDNDKCCRPNLVCSRTHKWCKYVF-NH2; disulfide 2-17, 9-23, 16-30) | 9 | > 10
CC[C@H](C)[C@@H]1NC(=O)[C@@H]2CSSC[C@@H]3NC(=O)[C@H](C(C)C)NC(=O)[C@H](CC(C)C)NC(=O)[C@H](CC(N)=O)NC(=O)[C@@H]4CCCN4C(=O)[C@H](CCCNC(=N)N)NC(=O)[C@H](CSSC[C@H](NC(=O)[C@@H](N)CC(=O)O)C(=O)N[C@@H](CC(C)C)C(=O)NCC(=O)N[C@@H](Cc4ccccc4)C(=O)N[C@@H](CCSC)C(=O)N[C@@H](CCCNC(=N)N)C(=O)N[C@@H](CCCCN)C(=O)N2)NC(=O)[C@H](CSSC[C@@H](C(=O)N[C@@H](CCCCN)C(=O)N[C@@H](Cc2ccc(O)cc2)C(=O)N[C@H](C(=O)N[C@@H](Cc2ccccc2)C(N)=O)C(C)C)NC(=O)[C@H](Cc2c[nH]c4ccccc24)NC(=O)[C@H](CCCCN)NC(=O)[C@H](C)NC(=O)[C@H]([C@@H](C)O)NC(=O)[C@H](CCCNC(=N)N)NC(=O)[C@H](CO)NC3=O)NC(=O)[C@H](CCCCN)NC(=O)[C@H](CC(=O)O)NC(=O)[C@H](CC(N)=O)NC(=O)[C@H](CC(=O)O)NC(=O)[C@@H]2CCCN2C1=O (H-DCLGFMRKCIPDNDKCCRPNLVCSRTAKWCKYVF-NH2; disulfide 2-17, 9-23, 16-30) | 970 | > 5
CC[C@H](C)[C@@H]1NC(=O)[C@@H]2CSSC[C@@H]3NC(=O)[C@H](C(C)C)NC(=O)[C@H](CC(C)C)NC(=O)[C@H](CC(N)=O)NC(=O)[C@@H]4CCCN4C(=O)[C@H](CCCNC(=N)N)NC(=O)[C@H](CSSC[C@H](NC(=O)[C@@H](N)CC(=O)O)C(=O)N[C@@H](CC(C)C)C(=O)NCC(=O)N[C@@H](C)C(=O)N[C@@H](CCSC)C(=O)N[C@@H](CCCNC(=N)N)C(=O)N[C@@H](CCCCN)C(=O)N2)NC(=O)[C@H](CSSC[C@@H](C(=O)N[C@@H](CCCCN)C(=O)N[C@@H](Cc2ccc(O)cc2)C(=O)N[C@H](C(=O)N[C@@H](Cc2ccccc2)C(N)=O)C(C)C)NC(=O)[C@H](Cc2c[nH]c4ccccc24)NC(=O)[C@H](CCCCN)NC(=O)[C@H](Cc2cnc[nH]2)NC(=O)[C@H](CC(C)C)NC(=O)[C@H](CCCNC(=N)N)NC(=O)[C@H](CO)NC3=O)NC(=O)[C@H](CCCCN)NC(=O)[C@H](CC(=O)O)NC(=O)[C@H](CC(N)=O)NC(=O)[C@H](CC(=O)O)NC(=O)[C@@H]2CCCN2C1=O (H-DCLGAMRKCIPDNDKCCRPNLVCSRLHKWCKYVF-NH2; disulfide 2-17, 9-23, 16-30) | 54 | > 10
CC[C@H](C)[C@@H]1NC(=O)[C@@H]2CSSC[C@@H]3NC(=O)[C@H](C(C)C)NC(=O)[C@H](CC(C)C)NC(=O)[C@H](CC(N)=O)NC(=O)[C@@H]4CCCN4C(=O)[C@H](CCCNC(=N)N)NC(=O)[C@H](CSSC[C@H](NC(=O)[C@@H](N)CC(=O)O)C(=O)N[C@@H](CC(C)C)C(=O)NCC(=O)N[C@@H](Cc4ccccc4)C(=O)N[C@@H](Cc4c[nH]c5ccccc45)C(=O)N[C@@H](CCCNC(=N)N)C(=O)N[C@@H](CCCCN)C(=O)N2)NC(=O)[C@H](CSSC[C@@H](C(=O)N[C@@H](CCCCN)C(=O)N[C@@H](Cc2ccc(O)cc2)C(=O)N[C@H](C(=O)N[C@@H](Cc2ccccc2)C(N)=O)C(C)C)NC(=O)[C@H](Cc2c[nH]c4ccccc24)NC(=O)[C@H](CCCCN)NC(=O)[C@H](Cc2cnc[nH]2)NC(=O)[C@H]([C@@H](C)O)NC(=O)[C@H](CCCNC(=N)N)NC(=O)[C@H](CO)NC3=O)NC(=O)[C@H](CCCCN)NC(=O)[C@H](CC(=O)O)NC(=O)[C@H](CC(N)=O)NC(=O)[C@H](CC(=O)O)NC(=O)[C@@H]2CCCN2C1=O (H-DCLGFWRKCIPDNDKCCRPNLVCSRTHKWCKYVF-NH2; disulfide 2-17, 9-23, 16-30) | 23 | 3.4
CC[C@H](C)[C@@H]1NC(=O)[C@@H]2CSSC[C@@H]3NC(=O)[C@H](C(C)C)NC(=O)[C@H](C)NC(=O)[C@H](CC(N)=O)NC(=O)[C@@H]4CCCN4C(=O)[C@H](CCCNC(=N)N)NC(=O)[C@H](CSSC[C@H](NC(=O)[C@@H](N)CC(=O)O)C(=O)N[C@@H](CC(C)C)C(=O)NCC(=O)N[C@@H](Cc4ccccc4)C(=O)N[C@@H](CCSC)C(=O)N[C@@H](CCCNC(=N)N)C(=O)N[C@@H](CCCCN)C(=O)N2)NC(=O)[C@H](CSSC[C@@H](C(=O)N[C@@H](CCCCN)C(=O)N[C@@H](Cc2ccc(O)cc2)C(=O)N[C@H](C(=O)N[C@@H](Cc2ccccc2)C(N)=O)C(C)C)NC(=O)[C@H](Cc2c[nH]c4ccccc24)NC(=O)[C@H](CCCCN)NC(=O)[C@H](Cc2cnc[nH]2)NC(=O)[C@H]([C@@H](C)O)NC(=O)[C@H](CCCNC(=N)N)NC(=O)[C@H](CO)NC3=O)NC(=O)[C@H](CCCCN)NC(=O)[C@H](CC(=O)O)NC(=O)[C@H](CC(N)=O)NC(=O)[C@H](CC(=O)O)NC(=O)[C@@H]2CCCN2C1=O (H-DCLGFMRKCIPDNDKCCRPNAVCSRTHKWCKYVF-NH2; disulfide 2-17, 9-23, 16-30) | 190 | > 20
CC[C@H](C)[C@@H]1NC(=O)[C@@H]2CSSC[C@@H]3NC(=O)[C@H](C(C)C)NC(=O)[C@H](CC(C)C)NC(=O)[C@H](CC(N)=O)NC(=O)[C@@H]4CCCN4C(=O)[C@H](CCCNC(=N)N)NC(=O)[C@H](CSSC[C@H](NC(=O)[C@@H](N)CC(=O)O)C(=O)N[C@@H](CC(C)C)C(=O)NCC(=O)N[C@@H](Cc4ccccc4)C(=O)N[C@@H](CCSC)C(=O)N[C@@H](CCCNC(=N)N)C(=O)N[C@@H](CCCCN)C(=O)N2)NC(=O)[C@H](CSSC[C@@H](C(=O)N[C@@H](CCCCN)C(=O)N[C@@H](Cc2ccc(O)cc2)C(=O)N[C@H](C(=O)N[C@@H](Cc2ccccc2)C(N)=O)C(C)C)NC(=O)[C@H](Cc2c[nH]c4ccccc24)NC(=O)[C@H](CCCCN)NC(=O)[C@H](Cc2cnc[nH]2)NC(=O)[C@H](CC(C)C)NC(=O)[C@H](CCCNC(=N)N)NC(=O)[C@H](CO)NC3=O)NC(=O)[C@H](CCCCN)NC(=O)[C@H](CC(=O)O)NC(=O)[C@H](CC(N)=O)NC(=O)[C@H](CC(=O)O)NC(=O)[C@@H]2CCCN2C1=O (H-DCLGFMRKCIPDNDKCCRPNLVCSRLHKWCKYVF-NH2; disulfide 2-17, 9-23, 16-30) | 4 | 4.6
CC[C@H](C)[C@@H]1NC(=O)[C@@H]2CSSC[C@@H]3NC(=O)[C@H](C(C)C)NC(=O)[C@H](CC(C)C)NC(=O)[C@H](CC(N)=O)NC(=O)[C@@H]4CCCN4C(=O)[C@H](CCCNC(=N)N)NC(=O)[C@H](CSSC[C@H](NC(=O)[C@@H](N)CC(=O)O)C(=O)N[C@@H](CC(C)C)C(=O)NCC(=O)N[C@@H](Cc4ccccc4)C(=O)N[C@@H](CCSC)C(=O)N[C@@H](CCCNC(=N)N)C(=O)N[C@@H](CCCCN)C(=O)N2)NC(=O)[C@H](CSSC[C@@H](C(=O)N[C@@H](CCCCN)C(=O)N[C@@H](Cc2ccc(O)cc2)C(=O)N[C@H](C(=O)N[C@@H](Cc2ccccc2)C(N)=O)C(C)C)NC(=O)[C@H](Cc2c[nH]c4ccccc24)NC(=O)[C@H](CCC(=O)O)NC(=O)[C@H](Cc2cnc[nH]2)NC(=O)[C@H]([C@@H](C)O)NC(=O)[C@H](CCCNC(=N)N)NC(=O)[C@H](CO)NC3=O)NC(=O)[C@H](CCCCN)NC(=O)[C@H](CC(=O)O)NC(=O)[C@H](CC(N)=O)NC(=O)[C@H](CC(=O)O)NC(=O)[C@@H]2CCCN2C1=O (H-DCLGFMRKCIPDNDKCCRPNLVCSRTHEWCKYVF-NH2; disulfide 2-17, 9-23, 16-30) | 29 | > 10
CC[C@H](C)[C@@H]1NC(=O)[C@@H]2CSSC[C@@H]3NC(=O)[C@H](C(C)C)NC(=O)[C@H](CC(C)C)NC(=O)[C@H](CC(N)=O)NC(=O)[C@@H]4CCCN4C(=O)[C@H](CCCNC(=N)N)NC(=O)[C@H](CSSC[C@H](NC(=O)[C@@H](N)CC(=O)O)C(=O)N[C@@H](CC(C)C)C(=O)NCC(=O)N[C@@H](Cc4ccccc4)C(=O)N[C@@H](CC(C)C)C(=O)N[C@@H](CCCNC(=N)N)C(=O)N[C@@H](CCCCN)C(=O)N2)NC(=O)[C@H](CSSC[C@@H](C(=O)N[C@@H](CCCCN)C(=O)N[C@@H](Cc2ccc(O)cc2)C(=O)N[C@H](C(=O)N[C@@H](Cc2ccccc2)C(N)=O)C(C)C)NC(=O)[C@H](Cc2c[nH]c4ccccc24)NC(=O)[C@H](CCCCN)NC(=O)[C@H](Cc2cnc[nH]2)NC(=O)[C@H]([C@@H](C)O)NC(=O)[C@H](CCCNC(=N)N)NC(=O)[C@H](CO)NC3=O)NC(=O)[C@H](CCCCN)NC(=O)[C@H](CC(=O)O)NC(=O)[C@H](CC(N)=O)NC(=O)[C@H](CC(=O)O)NC(=O)[C@@H]2CCCN2C1=O (H-DCLGFLRKCIPDNDKCCRPNLVCSRTHKWCKYVF-NH2; disulfide 2-17, 9-23, 16-30) | 24 | > 10

From ChEMBL document CHEMBL3414527, “Engineering potent and selective analogues of GpTx-1, a tarantula venom peptide antagonist of the Na(V)1.7 sodium channel” (J Med Chem, 2015)
